Patent US20240336981A1, “PANELS AND METHODS FOR DIAGNOSING AND TREATING LUNG CANCER” (The Broad Institute, Inc., priority 2021, published 2024)

Assays:
[1] = test system: lung adenocarcinoma (LUAD) cell lines; experiment: Proliferation assay (IncuCyte confluency); format: cell-based; details: for proliferation (response) of S3 cell lines compared to the S4 and unassigned cell lines: S3 lines HCC78, HCC827, NCIH1975, NCIH1838, 4 days
Text: lung adenocarcinoma (LUAD) cell lines were used (HCC78, HCC827, NCIH1975, NCIH1838, NCIH1395, NCIH1833, NCIH1755, ABC1, CALU3). Tests for mycoplasma contamination were negative. Cells were maintained in RPMI 1640 medium supplemented with 10% fetal bovine serum and 1% penicillin-streptomycin.
The media and drugs were replenished every 2-3 days. Continuous cell growth was monitored in 96-well plates every 3 hr for 4 days using the IncuCyte Kinetic Imaging System. The relative confluency was analyzed using IncuCyte software. The reported response percentage for each cell line was calculated as the percent of confluency compared to their DMSO treated counterpart. Proliferation assays were repeated 4 times.

[2] = test system: mutant forms of EGFR (T790M, L858R, and exon 19 deletion); details: exon 19 deletion vs wild-type; cited from earlier work
CDK3 and CDK7 = details: cited from earlier work
non-CDK kinases = details: with the exception of GSK3beta; cited from earlier work
PD-L1 = experiment: Immunofluorescence staining with anti-PD-L1 antibody; format: cell-based; details: tivantinib-treated cells vs controls; all subtypes; quantified with ImageJ
Procedure: The following antibody was used for immunofluorescence staining—Recombinant Alexa Fluor® 488 Anti-PD-L1 antibody (ab209959). […] Cells were then fixed in 4% paraformaldehyde for 10 min and washed twice in cold PBS. Fluor® 488 Anti-PD-L1 antibody was added for 1 hr incubation in a light protected environment at room temperature followed by staining nuclei with DAPI. Fluorescence images were captured using Invitrogen™ EVOS™ FL Imaging System by Thermo Fisher Scientific. The fluorescent increase was further quantified using ImageJ software.

HER-3 = HER-3 (Homo sapiens, UniProt P21860); details: cited from earlier work
EGFR = EGFR (Homo sapiens, UniProt P00533); details: cited from earlier work
[3] = test system: tumor-bearing animal models such as breast, colon, lung cancers, and hepatocellular carcinoma; details: in vivo; cited from earlier work
HER4 = HER4 (Homo sapiens, UniProt Q15303); details: in vitro; cited from earlier work
HER2 = HER2 (Homo sapiens, UniProt P04626); details: in vitro; cited from earlier work
BLK = BLK (Homo sapiens, UniProt P51451); details: in vitro; cited from earlier work

Sequence of HER2 (P04626 23-1255): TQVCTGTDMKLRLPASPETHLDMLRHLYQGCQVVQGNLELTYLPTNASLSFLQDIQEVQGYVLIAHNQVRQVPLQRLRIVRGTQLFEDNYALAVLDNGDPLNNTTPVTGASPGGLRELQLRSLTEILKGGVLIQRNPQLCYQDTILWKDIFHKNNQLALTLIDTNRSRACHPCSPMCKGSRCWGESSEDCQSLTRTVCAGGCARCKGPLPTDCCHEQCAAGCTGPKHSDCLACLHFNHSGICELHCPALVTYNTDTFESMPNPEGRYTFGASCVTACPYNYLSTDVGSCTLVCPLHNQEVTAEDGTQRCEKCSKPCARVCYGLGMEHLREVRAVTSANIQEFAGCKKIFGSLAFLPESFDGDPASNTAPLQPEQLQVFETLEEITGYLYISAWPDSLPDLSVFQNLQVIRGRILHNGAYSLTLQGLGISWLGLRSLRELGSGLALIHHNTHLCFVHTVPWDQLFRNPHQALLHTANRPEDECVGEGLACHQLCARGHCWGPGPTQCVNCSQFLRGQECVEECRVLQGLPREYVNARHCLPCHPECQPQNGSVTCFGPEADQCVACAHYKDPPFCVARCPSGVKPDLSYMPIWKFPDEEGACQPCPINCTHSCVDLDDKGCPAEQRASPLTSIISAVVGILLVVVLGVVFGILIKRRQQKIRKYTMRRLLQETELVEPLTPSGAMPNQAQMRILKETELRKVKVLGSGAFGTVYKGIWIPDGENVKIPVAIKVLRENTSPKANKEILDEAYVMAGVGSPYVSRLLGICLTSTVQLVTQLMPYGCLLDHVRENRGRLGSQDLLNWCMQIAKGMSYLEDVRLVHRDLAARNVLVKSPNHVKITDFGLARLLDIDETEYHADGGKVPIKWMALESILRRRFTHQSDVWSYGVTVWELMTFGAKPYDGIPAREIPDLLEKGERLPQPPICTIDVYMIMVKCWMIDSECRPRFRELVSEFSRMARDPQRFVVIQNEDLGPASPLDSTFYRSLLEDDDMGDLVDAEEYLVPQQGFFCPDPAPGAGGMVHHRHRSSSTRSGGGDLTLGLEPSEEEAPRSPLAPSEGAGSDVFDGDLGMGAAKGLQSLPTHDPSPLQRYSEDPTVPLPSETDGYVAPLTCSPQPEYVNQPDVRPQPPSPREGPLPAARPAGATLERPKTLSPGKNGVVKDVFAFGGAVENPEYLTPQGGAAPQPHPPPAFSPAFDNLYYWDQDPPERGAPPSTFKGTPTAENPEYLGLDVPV
Sequence of EGFR (P00533 25-1210): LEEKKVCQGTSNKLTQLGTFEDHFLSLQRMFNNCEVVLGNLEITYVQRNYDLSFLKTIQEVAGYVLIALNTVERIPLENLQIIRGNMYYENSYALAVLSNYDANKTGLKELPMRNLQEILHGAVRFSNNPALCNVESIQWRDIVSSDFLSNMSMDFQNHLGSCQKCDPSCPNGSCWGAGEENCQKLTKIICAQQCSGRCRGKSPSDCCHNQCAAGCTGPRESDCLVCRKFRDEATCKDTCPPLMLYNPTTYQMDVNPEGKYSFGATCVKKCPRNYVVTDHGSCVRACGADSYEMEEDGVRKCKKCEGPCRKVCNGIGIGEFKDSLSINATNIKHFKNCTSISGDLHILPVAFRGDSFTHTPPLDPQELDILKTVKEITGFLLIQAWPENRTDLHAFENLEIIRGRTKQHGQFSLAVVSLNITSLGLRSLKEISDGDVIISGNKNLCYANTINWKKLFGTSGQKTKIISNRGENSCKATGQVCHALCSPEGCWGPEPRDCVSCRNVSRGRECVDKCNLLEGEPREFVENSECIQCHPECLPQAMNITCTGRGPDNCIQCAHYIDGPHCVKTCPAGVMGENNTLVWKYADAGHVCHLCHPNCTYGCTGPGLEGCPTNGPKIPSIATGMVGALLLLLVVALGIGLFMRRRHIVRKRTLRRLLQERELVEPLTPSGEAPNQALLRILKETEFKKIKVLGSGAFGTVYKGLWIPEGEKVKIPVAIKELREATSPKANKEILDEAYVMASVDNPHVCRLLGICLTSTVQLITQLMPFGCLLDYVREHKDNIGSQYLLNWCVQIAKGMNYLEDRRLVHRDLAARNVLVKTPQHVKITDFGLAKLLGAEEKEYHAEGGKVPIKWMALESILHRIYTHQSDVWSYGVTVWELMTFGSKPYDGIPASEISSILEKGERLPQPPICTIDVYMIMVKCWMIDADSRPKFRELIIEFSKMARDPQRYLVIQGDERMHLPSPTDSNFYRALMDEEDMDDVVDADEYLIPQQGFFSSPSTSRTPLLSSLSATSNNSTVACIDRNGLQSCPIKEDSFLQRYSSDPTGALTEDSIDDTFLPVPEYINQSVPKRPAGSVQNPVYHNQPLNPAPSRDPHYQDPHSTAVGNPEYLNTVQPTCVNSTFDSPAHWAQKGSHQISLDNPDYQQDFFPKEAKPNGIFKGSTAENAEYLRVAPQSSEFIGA
Sequence of HER4 (Q15303 26-1308): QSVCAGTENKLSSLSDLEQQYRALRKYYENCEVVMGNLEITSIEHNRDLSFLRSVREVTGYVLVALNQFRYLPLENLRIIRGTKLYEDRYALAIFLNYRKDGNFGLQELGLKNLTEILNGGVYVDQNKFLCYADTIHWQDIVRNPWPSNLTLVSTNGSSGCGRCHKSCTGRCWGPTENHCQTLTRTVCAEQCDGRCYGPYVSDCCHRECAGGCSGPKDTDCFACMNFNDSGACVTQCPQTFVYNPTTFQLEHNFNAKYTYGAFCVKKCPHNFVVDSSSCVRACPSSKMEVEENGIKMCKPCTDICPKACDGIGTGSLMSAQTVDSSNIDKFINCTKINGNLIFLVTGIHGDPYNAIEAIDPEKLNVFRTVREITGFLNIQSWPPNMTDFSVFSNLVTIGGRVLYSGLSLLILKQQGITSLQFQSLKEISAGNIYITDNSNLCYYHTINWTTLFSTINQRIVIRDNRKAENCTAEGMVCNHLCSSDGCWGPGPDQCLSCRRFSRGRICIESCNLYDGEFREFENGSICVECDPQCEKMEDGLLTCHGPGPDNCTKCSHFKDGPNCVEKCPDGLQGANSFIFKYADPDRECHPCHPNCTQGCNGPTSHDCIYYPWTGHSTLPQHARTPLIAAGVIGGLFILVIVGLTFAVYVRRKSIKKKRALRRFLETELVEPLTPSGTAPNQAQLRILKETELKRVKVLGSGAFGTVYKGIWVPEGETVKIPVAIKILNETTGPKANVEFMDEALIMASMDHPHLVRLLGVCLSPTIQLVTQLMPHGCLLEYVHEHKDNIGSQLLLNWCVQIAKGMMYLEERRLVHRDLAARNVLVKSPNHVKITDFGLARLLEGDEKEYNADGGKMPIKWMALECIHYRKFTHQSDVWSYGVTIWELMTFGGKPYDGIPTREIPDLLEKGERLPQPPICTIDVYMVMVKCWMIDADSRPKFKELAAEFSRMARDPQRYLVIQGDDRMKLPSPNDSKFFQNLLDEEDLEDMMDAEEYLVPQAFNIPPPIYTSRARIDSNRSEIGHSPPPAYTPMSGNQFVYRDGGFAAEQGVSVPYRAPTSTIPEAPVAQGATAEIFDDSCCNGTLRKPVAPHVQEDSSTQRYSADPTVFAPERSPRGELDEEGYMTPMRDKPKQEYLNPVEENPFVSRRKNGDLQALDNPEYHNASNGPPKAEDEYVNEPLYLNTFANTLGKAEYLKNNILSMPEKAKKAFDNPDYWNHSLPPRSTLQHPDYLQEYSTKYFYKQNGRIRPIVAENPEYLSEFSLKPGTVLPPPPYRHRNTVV
Sequence of HER-3 (P21860 20-1342): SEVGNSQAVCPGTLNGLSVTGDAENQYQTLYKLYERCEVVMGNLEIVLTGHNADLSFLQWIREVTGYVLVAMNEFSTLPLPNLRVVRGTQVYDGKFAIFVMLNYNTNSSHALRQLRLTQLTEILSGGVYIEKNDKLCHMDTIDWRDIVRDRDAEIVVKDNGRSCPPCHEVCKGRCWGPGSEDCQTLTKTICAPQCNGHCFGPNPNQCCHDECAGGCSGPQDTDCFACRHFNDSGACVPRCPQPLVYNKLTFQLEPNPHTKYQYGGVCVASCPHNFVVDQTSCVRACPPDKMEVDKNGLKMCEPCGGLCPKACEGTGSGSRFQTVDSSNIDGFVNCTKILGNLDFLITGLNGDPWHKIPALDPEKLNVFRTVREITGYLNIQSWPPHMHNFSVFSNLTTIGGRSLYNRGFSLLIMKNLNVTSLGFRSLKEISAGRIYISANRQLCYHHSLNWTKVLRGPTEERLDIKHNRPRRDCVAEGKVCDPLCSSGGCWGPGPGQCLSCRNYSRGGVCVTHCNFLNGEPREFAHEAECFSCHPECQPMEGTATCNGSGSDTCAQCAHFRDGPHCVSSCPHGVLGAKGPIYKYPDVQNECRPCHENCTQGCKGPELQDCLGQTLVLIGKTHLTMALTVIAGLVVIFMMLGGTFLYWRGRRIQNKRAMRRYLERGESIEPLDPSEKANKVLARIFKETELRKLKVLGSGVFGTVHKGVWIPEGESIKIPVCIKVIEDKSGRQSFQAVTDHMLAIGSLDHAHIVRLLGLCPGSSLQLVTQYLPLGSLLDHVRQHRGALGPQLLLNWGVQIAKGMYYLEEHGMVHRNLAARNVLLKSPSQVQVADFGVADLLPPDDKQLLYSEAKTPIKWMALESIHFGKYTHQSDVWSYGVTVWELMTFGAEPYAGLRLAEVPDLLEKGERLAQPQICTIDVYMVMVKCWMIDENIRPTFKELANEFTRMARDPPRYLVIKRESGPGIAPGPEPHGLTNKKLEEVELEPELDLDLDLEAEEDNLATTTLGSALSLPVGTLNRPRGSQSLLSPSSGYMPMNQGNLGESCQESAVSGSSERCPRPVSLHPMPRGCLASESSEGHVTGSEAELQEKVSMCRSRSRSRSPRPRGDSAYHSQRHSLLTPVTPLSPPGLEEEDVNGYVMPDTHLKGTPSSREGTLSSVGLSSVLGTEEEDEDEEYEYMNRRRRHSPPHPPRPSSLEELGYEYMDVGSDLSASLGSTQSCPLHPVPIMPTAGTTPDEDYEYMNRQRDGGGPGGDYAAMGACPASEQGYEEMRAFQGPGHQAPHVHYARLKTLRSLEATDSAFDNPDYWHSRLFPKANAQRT

CC(=O)c1c(C)c2cnc(Nc3ccc(N4CCNCC4)cn3)nc2n(C2CCCC2)c1=O [Palbociclib]
proliferation (response) of S3 cell lines compared to the S4 and unassigned cell lines ([1]; Palbociclib 11 nM (CDK4 concentration), confluency vs DMSO): significantly lower proliferation (higher response)
proliferation at higher doses ([1]; higher doses of palbociclib (CDK4/6 concentration 16 nM), all cell lines): inhibited proliferation in all cell lines

CCNc1cc(N[C@H]2CC[C@H](O)CC2)nc(Nc2ccc3c(ccn3Cc3ccccc3)c2)n1 [CINK4]
proliferation (response) of S3 cell lines compared to the S4 and unassigned cell lines ([1]; CDK4/6 Inhibitor IV 1.5 μM (CDK4 specific concentration), confluency vs DMSO): significantly lower proliferation (higher response)

C=CC(=O)Nc1cc(Nc2nccc(-c3cn(C)c4ccccc34)n2)c(OC)cc1N(C)CCN(C)C [Osimertinib]
concentrations for binding mutant EGFR lower than wild-type [2]: approximately 9 fold

O=C(NC1CCNCC1)c1n[nH]cc1NC(=O)c1c(Cl)cccc1Cl [AT7519]
potency against other CDKs tested (CDK3 and CDK7): lower potency
activity against non-CDK kinases tested (non-CDK kinases): inactive

O=C1NC(=O)[C@@H](c2cn3c4c(cccc24)CCC3)[C@@H]1c1c[nH]c2ccccc12 [Tivantinib]
response of S3 compared to the other assigned groups ([1]; Tivantinib 3 μM, 4-day proliferation assay, confluency vs DMSO): significantly increased response
PD-L1 levels in response to c-MET inhibition (PD-L1): significant increase

CNC(=O)c1ccc(-c2cnc3ncc(Cc4ccc5ncccc5c4)n3n2)cc1F [Capmatinib]
activity against HER-3 (HER-3): ATP-competitive small molecule. Targets - c-Met. Little activity against EGFR and HER- 3.
activity against EGFR (EGFR): ATP-competitive small molecule. Targets - c-Met. Little activity against EGFR and HER- 3.

Cc1cccc(-c2nn3c(c2-c2ccnc4ccc(C(N)=O)cc24)CCC3)n1 [Galunisertib]
antitumor activity [3]: antitumor activity

C=CC(=O)Nc1cc(Nc2ncc(C(=O)OC(C)C)c(-c3cn(C)c4ccccc34)n2)c(OC)cc1N(C)CCN(C)C [Mobocertinib]
IC50 (HER4): < 2 nM
IC50 (HER2): < 2 nM
IC50 (BLK): < 2 nM
